Measurements published in patent US20090298878A1, “OXIME COMPOUNDS AND THE USE THEREOF” (priority 2006, published 2009).
Structures can show the parent of a compound that is named as a salt.

Target: T1, N-type calcium channel (NTCC) (Homo sapiens, UniProt Q00975)
T1 construct: host or cells: IMR32 cells differentiated with dibutyryl cAMP and bromodeoxyuridine
Experiment: FLIPR calcium mobilization assay for N-type calcium channel (differentiated IMR32 cells)
Format: cell-based
Conditions: about 1.0 μM or less; calcium mobilization and/or electrophysiological assay
Method: Cell maintenance and differentiation. Unless noted otherwise, cell culture reagents were purchased from Mediatech of Hemdon, Md. IMR32 cells (American Type Culture Collection, ATCC, Manassas, Va.) were routinely cultured in growth medium consisting of minimum essential medium containing 10% fetal bovine serum (FBS, Hyclone, Logan, Utah), 100 U/mL penicillin, 100 μg/mL streptomycin, 2 mM L-glutamine, 1 mM sodium pyruvate, and 1× MEM non-essential amino acids. 80-90% confluent flasks of cells were differentiated using the following differentiation medium: Growth medium plus 1 mM dibutyryl cyclic AMP (Sigma, St. Louis, Mo.), and 2.5 μM bromodeoxyuridine (Sigma). Cells were differentiated for 8 days by replacing differentiation medium every 2-3 days.
FLIPR Calcium Mobilization Assay for N-type Calcium Channel. One day prior to performing this assay, differentiated IMR32 cells were treated with 1× CellStripper, and seeded on poly-D-lysine-coated 96-well clear-bottom black plates (Becton Dickinson, Franklin Lakes, N.J.) at 200,000 cells/well. On the day of the assay, the cell plates were washed with IMR32 buffer (127 mM NaCl, 1 mM KCl, 2 mM MgCl2, 700 μM NaH2PO4, 5 mM CaCl2, 5 mM NaHCO3, 8 mM HEPES, 10 mM glucose, pH 7.4), then pre-stimulated with KCl and loaded as follows: 0.05 mL of IMR32 buffer, 0.05 mL of each compound tested diluted in IMR32 buffer containing 20 μM nitrendipine (Sigma), and 0.1 mL KCl dissolved in IMR32 buffer, plus Fluo-4 were added (3 μM final concentration, Molecular Probes, Eugene, Oreg.). Final test compound concentrations ranged from about 846 pM to about 17 μM, final nitrendipine concentration was 5 μM, and final KCl concentration was 90 mM. After 1 hour, the cells were washed twice with 0.05 mL of each compound tested in nitrendipine-containing IMR32 buffer (no KCl or Fluo-4), and then replaced with 0.1 mL of each compound tested in nitrendipine-containing IMR32 buffer. Plates were then transferred to a Fluorimetric imaging Plate Reader (FLIPR^96, Molecular Devices, Inc., Sunnyvale, Calif.) for assay. The FLIPR measured basal Fluo-4 fluorescence for 315 seconds (i.e., 5 minutes and 15 seconds), then added 0.1 mL KCl agonist dissolved in IMR32 buffer and measured fluorescence for another 45 seconds. Final test compound concentrations on the cells after FLIPR read ranged from about 846 pM to about 17 μM, final nitrendipine concentration was 5 μM, and final KCl concentration was 90 mM. Data were collected over the entire time course and analyzed using Excel, Graph Pad Prism (version 3.02, Graph Pad, San Diego, Calif.), or an in-house non-linear regression analysis software.

T1 sequence (Q00975 whole entry): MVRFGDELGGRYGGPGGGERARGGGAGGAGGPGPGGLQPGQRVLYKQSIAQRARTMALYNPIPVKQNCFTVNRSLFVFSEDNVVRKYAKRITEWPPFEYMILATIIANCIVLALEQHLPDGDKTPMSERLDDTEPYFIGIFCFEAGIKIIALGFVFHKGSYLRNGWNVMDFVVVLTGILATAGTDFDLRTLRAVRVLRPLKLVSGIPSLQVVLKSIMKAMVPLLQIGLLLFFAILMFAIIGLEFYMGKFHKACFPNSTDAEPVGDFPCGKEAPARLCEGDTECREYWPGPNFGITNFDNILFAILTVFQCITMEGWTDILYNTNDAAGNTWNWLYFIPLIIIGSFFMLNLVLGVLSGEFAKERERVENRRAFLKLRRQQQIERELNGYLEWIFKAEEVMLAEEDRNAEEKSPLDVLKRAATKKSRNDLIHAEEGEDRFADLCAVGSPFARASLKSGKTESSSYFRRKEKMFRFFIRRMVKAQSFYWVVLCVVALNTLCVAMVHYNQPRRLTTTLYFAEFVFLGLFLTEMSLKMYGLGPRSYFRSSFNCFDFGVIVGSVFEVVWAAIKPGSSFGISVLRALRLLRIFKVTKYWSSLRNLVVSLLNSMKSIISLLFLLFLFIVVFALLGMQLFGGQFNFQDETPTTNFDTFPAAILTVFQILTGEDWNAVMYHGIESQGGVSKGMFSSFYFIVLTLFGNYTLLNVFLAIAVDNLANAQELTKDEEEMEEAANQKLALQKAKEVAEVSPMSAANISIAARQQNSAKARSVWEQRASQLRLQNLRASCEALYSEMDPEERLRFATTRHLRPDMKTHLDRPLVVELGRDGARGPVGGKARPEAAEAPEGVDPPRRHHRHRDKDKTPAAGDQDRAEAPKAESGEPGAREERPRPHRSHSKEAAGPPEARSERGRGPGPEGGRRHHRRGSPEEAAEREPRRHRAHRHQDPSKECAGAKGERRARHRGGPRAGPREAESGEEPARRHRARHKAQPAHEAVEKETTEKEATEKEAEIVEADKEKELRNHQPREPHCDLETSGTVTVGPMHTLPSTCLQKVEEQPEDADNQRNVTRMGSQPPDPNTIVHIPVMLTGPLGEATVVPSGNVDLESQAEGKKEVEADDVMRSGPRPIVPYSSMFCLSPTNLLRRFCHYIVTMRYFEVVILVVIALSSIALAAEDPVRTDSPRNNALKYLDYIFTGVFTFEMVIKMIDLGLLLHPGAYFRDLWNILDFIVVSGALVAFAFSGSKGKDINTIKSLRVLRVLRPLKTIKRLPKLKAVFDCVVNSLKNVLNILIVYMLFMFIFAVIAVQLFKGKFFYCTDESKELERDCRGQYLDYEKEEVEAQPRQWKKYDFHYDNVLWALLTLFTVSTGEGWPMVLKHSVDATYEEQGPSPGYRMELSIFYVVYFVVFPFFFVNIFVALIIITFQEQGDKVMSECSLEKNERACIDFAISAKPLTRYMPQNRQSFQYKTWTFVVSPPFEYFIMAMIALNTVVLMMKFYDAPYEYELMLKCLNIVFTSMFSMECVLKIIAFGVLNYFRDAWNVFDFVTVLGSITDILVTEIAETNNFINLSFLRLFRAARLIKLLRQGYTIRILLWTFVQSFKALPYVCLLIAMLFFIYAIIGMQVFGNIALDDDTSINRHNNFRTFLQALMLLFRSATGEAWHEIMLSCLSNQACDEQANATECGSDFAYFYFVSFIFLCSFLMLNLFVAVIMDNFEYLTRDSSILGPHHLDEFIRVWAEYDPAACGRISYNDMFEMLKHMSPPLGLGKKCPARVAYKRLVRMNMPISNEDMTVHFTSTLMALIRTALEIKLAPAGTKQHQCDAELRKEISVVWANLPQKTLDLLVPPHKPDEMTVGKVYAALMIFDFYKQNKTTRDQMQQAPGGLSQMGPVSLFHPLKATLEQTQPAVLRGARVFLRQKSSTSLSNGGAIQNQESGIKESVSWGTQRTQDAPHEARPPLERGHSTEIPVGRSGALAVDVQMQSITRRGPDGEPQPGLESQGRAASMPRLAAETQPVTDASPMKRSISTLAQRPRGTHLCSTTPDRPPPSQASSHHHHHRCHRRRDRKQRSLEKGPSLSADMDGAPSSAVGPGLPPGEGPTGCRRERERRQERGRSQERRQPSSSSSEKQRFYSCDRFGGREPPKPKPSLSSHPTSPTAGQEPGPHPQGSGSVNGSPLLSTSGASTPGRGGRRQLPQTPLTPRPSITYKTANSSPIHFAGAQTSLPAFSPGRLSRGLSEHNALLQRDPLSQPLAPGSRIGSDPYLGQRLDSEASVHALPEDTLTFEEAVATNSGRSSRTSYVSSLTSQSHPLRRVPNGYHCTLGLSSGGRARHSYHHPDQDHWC

| IC50 [nM] | SMILES |
| --- | --- |
| ≤ 1000 | N#Cc1ccnc(CON=C2CCN(S(=O)(=O)c3ccc(OC(F)(F)F)cc3)CC2)c1 [Example 178, 2-((1-(4-(trifluoromethoxy)phenylsulfonyl)piperidin-4-ylideneaminooxy)methyl)isonicotinonitrile] |
| ≤ 1000 | CCCCC(C)ON=C1CCN(S(=O)(=O)c2cccc(C(F)(F)F)c2)CC1 (stereo not drawn) [Example 367, 1-(3-(Trifluoromethyl)phenylsulfonyl)piperidin-4-one O-hexan-2-yl oxime] |
| ≤ 1000 | N#Cc1cccc(C(ON=C2CCN(S(=O)(=O)c3ccc(OC(F)(F)F)cc3)CC2)C2CC2)c1 (stereo not drawn) [Example 186, 3-(Cyclopropyl(1-(4-(trifluoromethoxy)phenylsulfonyl)piperidin-4-ylideneaminooxy)methyl)benzonitrile] |
| ≤ 1000 | CCCCc1ccc(S(=O)(=O)N2CCC(=NOCc3cccnc3)CC2)cc1 [Example 70, 1-(4-Butylbenzenesulfonyl)piperidin-4-one O-pyridin-3-ylmethyloxime] |
| ≤ 1000 | COc1ccccc1S(=O)(=O)N1CCC(=NOC(c2ccc(F)cc2)c2ccc(F)cc2)CC1 [Example 238, 1-(2-Methoxyphenylsulfonyl)piperidin-4-one O-bis(4-fluorophenyl)methyl oxime] |
| ≤ 1000 | O=S(=O)(c1cccnc1)N1CCC(=NOC(c2ccc(F)cc2)c2ccc(F)cc2)CC1 [Example 291, 1-(Pyridin-3-ylsulfonyl)piperidin-4-one O-bis(4-fluorophenyl)methyl oxime] |
| ≤ 1000 | COc1cccc(CON=C2CCN(S(=O)(=O)c3ccc(OC(F)(F)F)cc3)CC2)n1 [Example 110, 1-(4-Trifluoromethoxybenzenesulfonyl)piperidin-4-one O-(6-methoxypyridin-2-ylmethyl)oxime] |
| ≤ 1000 | CCCCc1ccc(S(=O)(=O)N2CCC(=NOCc3cccc(Cl)n3)CC2)cc1 [Example 75, 1-(4-Butylbenzenesulfonyl)piperidin-4-one O-(6-chloropyridin-2-ylmethyl)oxime] |
| ≤ 1000 | COc1ccc(CON=C2CCN(S(=O)(=O)c3ccc(OC(F)(F)F)cc3)CC2)cn1 [Example 144, 1-(4-Trifluoromethoxybenzenesulfonyl)piperidin-4-one O-(6-methoxypyridin-3-ylmethyl)oxime] |
| ≤ 1000 | O=C(CCN1CCC(Cc2ccccc2)CC1)N1CCC(=NOCc2cccc(C(F)(F)F)c2)CC1 [Example 48, 1-[3-(4-Benzylpiperidin-1-yl)propionyl]piperidin-4-one O-(3-trifluoromethylbenzyl)oxime hydrochloride] |
| ≤ 1000 | COCCOc1ccc(S(=O)(=O)N2CCC(=NOCc3cccc(C(F)(F)F)c3)CC2)cc1 [Example 94, 1-[4-(2-Methoxyethoxy)benzenesulfonyl]piperidin-4-one O-(3-trifluoromethylbenzyl)oxime] |
| ≤ 1000 | CCCCc1ccc(S(=O)(=O)N2CCC(=NOCc3ccccn3)CC2)cc1 [Example 68, 1-(4-Butylbenzenesulfonyl)piperidin-4-one O-pyridin-2-ylmethyloxime] |
| ≤ 1000 | N#Cc1cccc(C(ON=C2CCN(S(=O)(=O)c3ccc(C#N)nc3)CC2)C2CC2)c1 (stereo not drawn) [Example 278, 5-(4-((3-Cyanophenyl)(cyclopropyl)methoxyimino)piperidin-1-ylsulfonyl)picolinonitrile] |
| ≤ 1000 | O=S(=O)(c1ccc(OC(F)(F)F)cc1)N1CCC(=NOC(c2ccc(F)cc2)C2CC2)CC1 (stereo not drawn) [Example 306, 1-(4-(Trifluoromethoxy)phenylsulfonyl)piperidin-4-one O-cyclopropyl(4-fluorophenyl)methyl oxime] |
| ≤ 1000 | N#Cc1cccc(CON=C2CCN(S(=O)(=O)c3ccc(OC(F)(F)F)cc3)CC2)c1 [Example 121, 3-[1-(4-Trifluoromethoxybenzenesulfonyl)piperidin-4-ylideneaminooxymethyl]benzonitrile] |
| ≤ 1000 | O=S(=O)(c1cc(F)cc(F)c1)N1CCC(=NOC(c2ccc(F)cc2)c2ccc(F)cc2)CC1 [Example 244, 1-(3,5-Difluorophenylsulfonyl)piperidin-4-one O-bis(4-fluorophenyl)methyl oxime] |
| ≤ 1000 | N#Cc1cccc(CON=C2CCN(S(=O)(=O)c3ccc(F)cc3)CC2)c1 [Example 196] |

| IC50 [nM] | SMILES |
| --- | --- |
| ≤ 1000 | CN1CCOc2cc(S(=O)(=O)N3CCC(=NOC(c4ccc(F)cc4)c4ccc(F)cc4)CC3)ccc21 [Example 237, 1-(4-Methyl-3,4-dihydro-2H-benzo[b][1,4]oxazin-7-ylsulfonyl)piperidin-4-one O-bis(4-fluorophenyl)methyl oxime] |
| ≤ 1000 | O=S(=O)(c1ccc(OC(F)(F)F)cc1)N1CCC(=NOCc2nc3ccccc3[nH]2)CC1 [Example 162, 1-(4-(Trifluoromethoxy)phenylsulfonyl)piperidin-4-one O-(1H-benzo[d]imidazol-2-yl)methyl oxime] |
| ≤ 1000 | N#Cc1cccc(CON=C2CCN(S(=O)(=O)c3ccc(C(F)(F)F)cc3)CC2)c1 [Example 280, 3-((1-(4-(Trifluoromethyl)phenylsulfonyl)piperidin-4-ylideneaminooxy)methyl)benzonitrile] |
| ≤ 1000 | O=S(=O)(c1ccc(OC(F)(F)F)cc1)N1CCC(=NOCc2ccc(Cl)cn2)CC1 [Example 127, 1-(4-Trifluoromethoxybenzenesulfonyl)piperidin-4-one O-(5-chloropyridin-2-ylmethyl)oxime] |
| ≤ 1000 | CCCCc1ccc(S(=O)(=O)N2CCC(=NOCc3ccc(Cl)cc3)CC2)cc1 [Example 72, 1-(4-Butylbenzenesulfonyl)piperidin-4-one O-(4-chlorobenzyl)oxime] |
| ≤ 1000 | N#Cc1cc(CON=C2CCN(S(=O)(=O)c3ccc(OC(F)(F)F)cc3)CC2)ccc1F [Example 108, 2-Fluoro-5-[1-(4-trifluoromethoxybenzenesulfonyl)piperidin-4-ylideneaminooxymethyl]benzonitrile] |
| ≤ 1000 | O=S(=O)(c1ccc(OC(F)F)cc1)N1CCC(=NOC(c2ccc(F)cc2)c2ccc(F)cc2)CC1 [Example 232, 1-(4-(Difluoromethoxy)phenylsulfonyl)piperidin-4-one O-bis(4-fluorophenyl)methyl oxime] |
| ≤ 1000 | N#Cc1ccc(S(=O)(=O)N2CCC(=NOC(c3ccc(F)cc3)c3ccc(F)cc3)CC2)cc1 [Example 256, 4-(4-(Bis(4-fluorophenyl)methoxyimino)piperidin-1-ylsulfonyl)benzonitrile] |
| ≤ 1000 | O=c1cc(CON=C2CCN(S(=O)(=O)c3ccc(OC(F)(F)F)cc3)CC2)ccn1Cc1ccc(F)cc1 [Example 296, 1-(4-Fluorobenzyl)-4-((1-(4-(trifluoromethoxy)phenylsulfonyl)piperidin-4-ylideneaminooxy)methyl)pyridin-2(1H)-one] |
| ≤ 1000 | N#Cc1ccc(S(=O)(=O)N2CCC(=NOCc3cccc(C(F)(F)F)c3)CC2)cc1 [Example 53, 4-[4-(3-Trifluoromethylbenzyloxyimino)piperidine-1-sulfonyl]benzonitrile] |
| ≤ 1000 | CC(C)OCC(ON=C1CCN(S(=O)(=O)c2ccc(OC(F)(F)F)cc2)CC1)c1cccc(C#N)c1 (stereo not drawn) [Example 303, 3-(2-Isopropoxy-1-(1-(4-(trifluoromethoxy)phenylsulfonyl)piperidin-4-ylideneaminooxy)ethyl)benzonitrile] |
| ≤ 1000 | COc1cc(CON=C2CCN(S(=O)(=O)c3ccc(OC(F)(F)F)cc3)CC2)nc2ccccc12 [Example 189, 1-(4-(Trifluoromethoxy)phenylsulfonyl)piperidin-4-one O-(4-methoxyquinolin-2-yl)methyl oxime] |
| ≤ 1000 | O=S(=O)(c1ccsc1)N1CCC(=NOC(c2ccc(F)cc2)c2ccc(F)cc2)CC1 [Example 287, 1-(Thiophen-3-ylsulfonyl)piperidin-4-one O-bis(4-fluorophenyl)methyl oxime] |
| ≤ 1000 | CCCCc1ccc(S(=O)(=O)N2CCC(=NOCc3cccc(OC)c3)CC2)cc1 [Example 80, 1-(4-Butylbenzenesulfonyl)piperidin-4-one O-(3-methoxybenzyl)oxime] |
| ≤ 1000 | O=S(=O)(c1cccc(Cl)c1)N1CCC(=NOC(c2ccc(F)cc2)c2ccc(F)cc2)CC1 [Example 292, 1-(3-Chlorophenylsulfonyl)piperidin-4-one O-bis(4-fluorophenyl)methyl oxime] |
| ≤ 1000 | CCCCc1ccc(S(=O)(=O)N2CCC(=NOCc3ccccc3)CC2)cc1 [Example 67, 1-(4-Butylbenzenesulfonyl)piperidin-4-one O-benzyloxime] |
